Measured values as given in patent US6143780A, “N-arylmethylthioanilide compounds useful for the inhibition of the replication of HIV” (Uniroyal Chemical Company, Inc., priority 1999, dated 2000).
Converted amounts (≈) assume the structure as drawn. “And” between values parts separate entries of the source, which are not always exact repeats. Identical values can stand only once. Like-named read-outs stand apart in the source and are kept apart here.

Tests used:
[1] = tested on: 181 Tyr→Cys mutation in the RT of HIV-1 strains; conditions: cited from earlier work
[2] = tested on: HIV-1 strains containing the 100 Leu→Ile mutation in their RT; conditions: cited from earlier work
HIV-1/106-Ala = test: inhibition of syncytium formation in CEM cells, HIV-1 RT mutant 106-Ala; format: cell-based; conditions: Human immunodeficiency virus 1, CCRF-CEM, 96 h, read-out: EC50 106-Ala
Source text: (§1) CEM cells were obtained from the American Tissue Cell Culture Collection (Rockville, Md.) . HIV-1 (IIIB) was originally obtained from the culture supernatant of persistently HIV-1-infected H9 cells and was provided by R. C. Gallo and M. Popovic (National Cancer Institute, National Institutes of Health, Bethesda, Md.).
(§2) The selection and characterization of the HIV-1 RT mutant strains were done as follows: HIV-1/100-Ile ("100-Ile") was selected for resistance against TIBO R82150 as described in Balzarini et al, Virology 192: 246-253 (1993); HIV-1/103-Asn ("103-Asn") was selected for resistance against TIBO R82913 as described in Balzarini et al, Virology 192: 246-253 (1993); HIV-1/106-Ala ("106-Ala") was selected for resistance against nevirapine as described in Balzarini et al, J. Virol. 67: 5353-5359 (1993); HIV-1/Lys-138 ("Lys-138") was selected for resistance against TSAO-m^3T as described in Balzarini et al, Virology 192: 246-253 (1993) and Balzarini et al, Proc. Nat. Acad. Sci. USA 90: 6952-6956 (1993); HIV-1/181-Cys ("181-Cys") was selected for resistance against pyridinone L-697,661 as described in Balzarini et al, Virology 192: 246-253 (1993); and HIV-1/188-His ("188-His") was selected for resistance against HEPT as described in Balzarini et al, Mol. Pharmocol. 44: 694-701 (1993). 188-His was then further converted to HIV-1/188-Leu ("188-Leu") upon further passage in cell culture in the absence of the HEPT. HIV-1/101-Glu ("101-Glu") and HIV-1/190-Glu ("190-Glu") were selected for resistance against the thiocarboxanilide derivative designated as UC38 as described in Balzarini et al, Antiviral Research 27: 219-236 (1995). HIV-1/184-Ile ("184-Ile") was selected for resistance against the combination of 3TC and TSAO-m^3 T as described in Balzarini et al, Molecular Pharm. 49: 882-890 (1996). HIV-1/184-Val ("184-Val") was selected for resistance against 3TC as described in Balzarini et al, Molecular Pharm. 49: 882-890 (1996).
(§3) CEM cells were suspended at ≈300,000 cells per ml of culture medium and infected with approximately 100 CCID50 (CCID50 being the 50% cell culture infective dose) of HIV-1(IIIB) (designated as "WT" in Table 3) or one of the HIV-1 RT mutant strains described above. Then 100 μl of the infected cell suspensions was added to 200 μl microtiter plate wells containing 100 μl of appropriate serial (5-fold) dilutions of the test compounds. The inhibitiory effect of the test compounds on HIV-1 induced syncytium formation in CEM cells was examined microscopically on day 4 post infection. The 50% effective concentration (EC50) was defined as the test compound concentration that inhibits syncytium formation in the HIV-1-infected cell cultures by 50%.

103-Ala = test: inhibition of syncytium formation in CEM cells, HIV-1 RT mutant 103-Ala; format: cell-based; conditions: Human immunodeficiency virus 1, CCRF-CEM, 96 h, read-out: EC50 103-Ala
HIV-1/184-Ile = test: inhibition of syncytium formation in CEM cells, HIV-1 RT mutant 184-Ile; format: cell-based; conditions: Human immunodeficiency virus 1, CCRF-CEM, 96 h, read-out: EC50 184-IIe
Source text: as §1, §2, §3

HIV-1/190-Glu = test: inhibition of syncytium formation in CEM cells, HIV-1 RT mutant 190-Glu; format: cell-based; conditions: Human immunodeficiency virus 1, CCRF-CEM, 96 h, read-out: EC50 190-Glu
Source text: as §1, §2, §3

HIV-1/184-Val = test: inhibition of syncytium formation in CEM cells, HIV-1 RT mutant 184-Val; format: cell-based; conditions: Human immunodeficiency virus 1, CCRF-CEM, 96 h, read-out: EC50 184-Val
Source text: as §1, §2, §3

HIV-1 (IIIB) = test: inhibition of HIV-1(IIIB) (WT) induced syncytium formation in CEM cells; format: cell-based
Source text: as §1, §3

HIV-1/101-Glu = test: inhibition of syncytium formation in CEM cells, HIV-1 RT mutant 101-Glu; format: cell-based; conditions: Human immunodeficiency virus 1, CCRF-CEM, 96 h, read-out: EC50 101-Glu
Source text: as §1, §2, §3

138-Lys = test: inhibition of syncytium formation in CEM cells, HIV-1 RT mutant 138-Lys; format: cell-based; conditions: Human immunodeficiency virus 1, CCRF-CEM, 96 h, read-out: EC50 138-Lys
Source text: as §1, §2, §3

HIV-1/181-Cys = test: inhibition of syncytium formation in CEM cells, HIV-1 RT mutant 181-Cys; format: cell-based; conditions: Human immunodeficiency virus 1, CCRF-CEM, 96 h, read-out: EC50 181-Cys
Source text: as §1, §2, §3

HIV-1/188-His = test: inhibition of syncytium formation in CEM cells, HIV-1 RT mutant 188-His; format: cell-based; conditions: Human immunodeficiency virus 1, CCRF-CEM, 96 h, read-out: EC50 188-His
Source text: as §1, §2, §3

HIV-1/188-Leu = test: inhibition of syncytium formation in CEM cells, HIV-1 RT mutant 188-Leu; format: cell-based; conditions: Human immunodeficiency virus 1, CCRF-CEM, 96 h, read-out: EC50 188-Leu
Source text: as §1, §2, §3

HIV-1/100-Ile = test: inhibition of syncytium formation in CEM cells, HIV-1 RT mutant 100-Ile; format: cell-based; conditions: Human immunodeficiency virus 1, CCRF-CEM, 96 h, read-out: EC50 100-Ile
Source text: as §1, §2, §3

[3] = Human immunodeficiency virus 1, IIIB, CCRF-CEM, 96 h, Table 3, HIV-1(IIIB), day 4 post infection, read-out: EC50 WT
[4] = Table 2, day 4 post infection, replicate values, read-out: EC50, Activity Against HIV-1 (IIIB)
[5] = Human immunodeficiency virus 1, IIIB, CCRF-CEM, 96 h, Table 2, day 4 post infection, replicate values, read-out: EC50, Activity Against HIV-1 (IIIB)

Cc1ccnc2c1NC(=O)c1cccnc1N2C1CC1 [nevirapine]
resistance of 181 Tyr→Cys mutant strains [1]: resistant

CC(C)=CCN1Cc2cc(Cl)cc3[nH]c(=S)n(c23)CC1C (single isomer, unassigned) [TIBO R82913]
resistance of 100 Leu→Ile mutant strains [2]: resistant

CC(C)=CCN1Cc2cccc3[nH]c(=S)n(c23)CC1C (single isomer, unassigned) [Compound R82150]
resistance of 100 Leu→Ile mutant strains [2]: resistant

Cc1occc1C(=S)Nc1ccc(Cl)c(COc2ccccc2Br)c1 [Compound 40]
EC50 (HIV-1/106-Ala): 0.85 µg/mL
EC50 (103-Ala): > 2 µg/mL
EC50 (HIV-1/184-Ile): 0.04 µg/mL
EC50 (HIV-1/190-Glu): > 2 µg/mL
EC50 (HIV-1/184-Val): 0.018 µg/mL
EC50 (HIV-1 (IIIB); [3]): 0.02 µg/mL
EC50 (HIV-1 (IIIB); [4]): 35.3 nM and 46 nM and 16.8 nM
EC50 (HIV-1/101-Glu): 0.4 µg/mL
EC50 (138-Lys): 0.09 µg/mL
EC50 (HIV-1/181-Cys): 0.75 µg/mL
EC50 (HIV-1/188-His): 0.4 µg/mL
EC50 (HIV-1/188-Leu): 0.7 µg/mL
EC50 (HIV-1/100-Ile): 1.73 µg/mL

Cc1occc1C(=S)Nc1ccc(Cl)c(COc2ccccc2F)c1 [Compound 18]
EC50 (HIV-1/106-Ala): 1.1 µg/mL
EC50 (103-Ala): > 2 µg/mL
EC50 (HIV-1/184-Ile): 0.032 µg/mL
EC50 (HIV-1/190-Glu): > 2 µg/mL
EC50 (HIV-1/184-Val): 0.008 µg/mL
EC50 (HIV-1 (IIIB); [5]): 117 nM
EC50 (HIV-1 (IIIB); [3]): 0.0053 µg/mL
EC50 (HIV-1 (IIIB); [4]): 111 nM
EC50 (HIV-1/101-Glu): 0.24 µg/mL
EC50 (138-Lys): 0.53 µg/mL
EC50 (HIV-1/181-Cys): 0.1 µg/mL
EC50 (HIV-1/188-His): 1.73 µg/mL
EC50 (HIV-1/188-Leu): > 2 µg/mL
EC50 (HIV-1/100-Ile): 0.077 µg/mL

COc1ccccc1OCc1cc(NC(=S)c2ccoc2C)ccc1Cl [Compound 22]
EC50 (HIV-1/106-Ala): 1 µg/mL
EC50 (103-Ala): 2.73 µg/mL (≈ 7.04 µM)
EC50 (HIV-1/184-Ile): 0.025 µg/mL
EC50 (HIV-1/190-Glu): > 2 µg/mL
EC50 (HIV-1/184-Val): 0.018 µg/mL
EC50 (HIV-1 (IIIB); [5]): 160 nM
EC50 (HIV-1 (IIIB); [3]): 0.011 µg/mL
EC50 (HIV-1 (IIIB); [4]): 209 nM
EC50 (HIV-1/101-Glu): 0.75 µg/mL
EC50 (138-Lys): 0.075 µg/mL
EC50 (HIV-1/181-Cys): 0.41 µg/mL
EC50 (HIV-1/188-His): 0.85 µg/mL
EC50 (HIV-1/188-Leu): > 2 µg/mL
EC50 (HIV-1/100-Ile): 0.4 µg/mL

CCc1ccccc1OCc1cc(NC(=S)c2ccoc2C)ccc1Cl [Compound 44]
EC50 (HIV-1/106-Ala): 1.1 µg/mL
EC50 (103-Ala): > 2 µg/mL
EC50 (HIV-1/184-Ile): 0.04 µg/mL
EC50 (HIV-1/190-Glu): > 2 µg/mL
EC50 (HIV-1/184-Val): 0.018 µg/mL
EC50 (HIV-1 (IIIB); [3]): 0.0065 µg/mL
EC50 (HIV-1 (IIIB); [4]): 30.7 nM and 18 nM and 95.4 nM
EC50 (HIV-1/101-Glu): 0.65 µg/mL
EC50 (138-Lys): 0.16 µg/mL
EC50 (HIV-1/181-Cys): > 2 µg/mL
EC50 (HIV-1/188-His): 0.25 µg/mL
EC50 (HIV-1/188-Leu): 0.35 µg/mL
EC50 (HIV-1/100-Ile): 0.41 µg/mL

COc1cccc(F)c1OCc1cc(NC(=S)c2ccoc2C)ccc1Cl [Compound 34]
EC50 (HIV-1/106-Ala): 0.1 µg/mL
EC50 (103-Ala): 0.85 µg/mL (≈ 2.09 µM)
EC50 (HIV-1/184-Ile): 0.0087 µg/mL
EC50 (HIV-1/190-Glu): > 2 µg/mL
EC50 (HIV-1/184-Val): 0.005 µg/mL
EC50 (HIV-1 (IIIB); [3]): 0.0022 µg/mL
EC50 (HIV-1 (IIIB); [4]): 5.65 nM and 17.4 nM
EC50 (HIV-1/101-Glu): 0.12 µg/mL
EC50 (138-Lys): 0.02 µg/mL
EC50 (HIV-1/181-Cys): 0.1 µg/mL
EC50 (HIV-1/188-His): 0.5 µg/mL
EC50 (HIV-1/188-Leu): 0.53 µg/mL
EC50 (HIV-1/100-Ile): 0.16 µg/mL
